Test results reported in patent publication US20250090562A1, “METHODS, COMPOSITIONS AND USES RELATED TO THE TREATMENT AND PREVENTION OF LEIGH’S SYNDROME” (Stealth BioTherapeutics Inc., priority 2023, published 2025).
Entries after “also recorded” stand apart in the source; their conditions may differ. Where two headings read alike, the source gives them in different places.

Assays:
[1] = Pharmacokinetics of Compound 3, repeated (5 days) subcutaneous dose, rats; type: in vivo, Sprague Dawley rats
Description: • Animals: Rat/Sprague Dawley/Male/Naive 225-250 grams were received from an approved vendor. • Fasting was not required for this study. • Body weights were recorded prior to dose administration. The volume of each dose delivered (mL/kg) was based on each individual animal's body weight. • This was a multiple dose terminal study dosed once per day over 5 days. Rats were taken down following their 5th and final dose. • Doses were administered in accordance with test facility standard operating procedures. […] Any abnormalities were recorded. • Pre-formulated Compounds 3 was provided by Study sponsor ready to be dosed for each day in accordance with the Study Design set forth in Table 3, below.
• Terminal blood samples were collected via cardiac puncture following inhalation anesthesia in accordance with test facility standard operating procedures. • Blood samples were collected into tubes with appropriate anticoagulant. Tubes were stored on wet ice until processed to plasma by centrifugation (3500 rpm at 5° C. for 10 minutes) within 20 minutes of collection. Sample aliquots of 100 μL were transferred into individual uniquely labeled matrix tubes and stored at nominal −80° C. until transferred to analytical chemistry for analysis. • Immediately following each terminal blood collection for all groups, animals were sacrificed and perfused with cold PBS. […]

[2] = Compound 4 pharmacokinetics and tissue exposure, five daily subcutaneous doses, mice; type: in vivo, C57BL/6 mice
Description: • Animals were allowed to acclimate to the test facility for at least two days prior to the beginning of the study. • Study animals were male C57BL/6 mice weighing approximately 18-25 grams each. • Fasting was not required for the study. • Body weights were recorded prior to dose administration. The volume of each dose delivered (mL/kg) was based on each individual animal's body weight. • This was a multiple dose serial PK dosed subcutaneously once daily over 5 days. Compound 4 was administered to two groups: Group 1 at 60 mg/kg and Group 2 at 180 mg/kg (6 and 18 mg/mL, 15% Kolliphor ELP in PBS, 10 mL/kg; N=3/group). Serial PK timepoints were collected following the 5th and final dose.
• Serial blood samples were collected via tail vein snip. • Blood samples were collected into tubes with anticoagulant. Tubes were stored on wet ice until processed to plasma by centrifugation (3500 rpm at 5° C. for 10 minutes) within 20 minutes of collection. Sample aliquots of 20 μL were transferred into individual uniquely labeled matrix tubes and stored at nominal −80° C. until transferred to analytical chemistry for analysis. • Immediately following each terminal blood collection for all groups, animals were sacrificed and perfused with cold PBS. Heart and brain tissues were collected. • Perfusion methodology: The chest was opened lengthwise using scissors to expose the thoracic organs. A scalpel was used to cut a small hole into the left ventricle just large enough to insert a cannula tip. The cannula was attached to an appropriately sized tubing and syringe prefilled with cold PBS and primed to remove any air. The tip of the cannula was inserted into the left ventricle and directed into the ascending aorta. Hemostats were used to help keep the cannula in place during perfusion. A second hole was made in the right atrium to allow for the escape of fluid during the return circulation. The syringe attached to the cannula was manually pushed or placed into a pump programmed to infuse at 10 mL/min. Animals were perfused for a minimum of 3 minutes or more if needed (until the exiting fluid was clear).
• N=3/group; • Collections relative to the final dose: • Plasma: 60 mg/kg at 2 and 24 hr; 180 mg/kg at predose, 2, 8, and 24 hr • Heart and Brain: 24 hr (terminal, PBS-perfused); • RGA 2 bioanalysis. […]

[3] = type: in vivo; conditions: rat, single dose 1 mg/kg IV, 10 mg/kg SC or 10 mg/kg PO
Description: • Animals: Rat/Sprague Dawley/Male/Naive 225-250 grams were received from an approved vendor. • Animals were fasted overnight prior to dose administration. Food was returned following the 2 hour sample collection. • Body weights were recorded prior to dose administration. The volume of each dose delivered (ml/kg) was based on each individual animal's body weight. • This was a single dose, serial blood collection study with tissues collected for possible future analysis. • Doses were administered in accordance with test facility standard operating procedures. […].
• Blood samples were collected via jugular vein catheter (JVC) and transferred to tubes with appropriate anticoagulant. The tubes were stored on wet ice until processed to plasma by centrifugation (3500 rpm at 5° C. for 10 minutes) within 20 minutes of collection. Sample aliquots of 100 μL were transferred into individual uniquely labeled matrix tubes containing 10 μL of 5% (v/v) formic acid aqueous solution and stored at nominal −80° C. until analyzed by LC/MS/MS. • Immediately following final serial blood collection (24 hours, JVC), animals were sacrificed and perfused with cold PBS. […]

15-lipoxygenase (15-LO) [4] = test: 15(S)-HETE ELISA following erastin treatment, Leigh fibroblasts; type: cell-based, human; conditions: erastin + FAC + AA, 1 μM compound, 24 h
Description: (§1) Samples for the 15(S)-HETE ELISA were generated by the Erastin Assay described above. Healthy or Leigh fibroblasts were resuspended in assay medium, seeded at 200,000 cells/well in a clear, tissue culture-treated, 24-well plate, and incubated at 37° C. for 24 hours. Supernatant was aspirated from each well.
(§2) Ferroptosis was induced using erastin at 2 μM concentration. 15(S)-HETE, which is a metabolite of arachidonic acid and generated by activity of 15-LO, was measured using a commercially available ELISA kit. Data were normalized to the “No treatment” group, which represented fibroblasts that were not injured with erastin.

15-lipoxygenase (15-LO) [5] = test: 15(S)-HETE ELISA following erastin treatment, healthy fibroblasts; type: cell-based, human; conditions: erastin + FAC + AA, 1 μM compound, 24 h
Description: as §1, §2

[6] = male, C57BL/6, mouse, in vivo, sc
[7] = male, C57BL/6, mouse, in vivo, sc, 60 mg/kg
[8] = male, C57BL/6, mouse, in vivo, sc, 60 mg/kg, 24 h
[9] = male, C57BL/6, mouse, in vivo, sc, 180 mg/kg
[10] = male, C57BL/6, mouse, in vivo, sc, 180 mg/kg, 24 h

Q: With `CC1=C(C)C(=O)C(CC[C@@](C)(O)COCCC[Si](C)(C)C)=C(C)C1=O` [Compound 3] as the compound, how does the “plasma uptake and clearance across species (mouse versus rat)” value ([1]; 20 mg/kg SC in mouse versus 10 mg/kg SC in rat (60 mg/m^2)) read?
A: roughly equivalent; also recorded: scales well by allometry

Q: And the tolerability ([1]; rat, 10 mg/kg SC once per day for 5 days)?
A: well tolerated

Q: What does the source list for `CC1=C(C)C(=O)C(CC[C@](C)(O)CCCCCCCCC(F)(F)F)=C(C)C1=O` [Compound 4]?
A: tolerability ([2]; 60 and 180 mg/kg SC over 5 days, 10 mL/kg QD, 15% Kolliphor ELP in PBS): well tolerated; Geomean C24 ([2]; male, C57BL/6, mouse, in vivo, 180 mg/kg, 24 h): 602 ng/g; concentration at 24 h ([2]; male, C57BL/6, mouse, in vivo, 180 mg/kg, Geomean C24): 514 ng/g; time to steady-state [2, 6]: ≤ 5 days; AUC(0-t) [2, 7]: 15400 ng·h/mL; AUClast/Dose [2, 7]: 257 kg·ng·h/mL/mg; Cmax [2, 7]: 1440 ng/mL; Concentration in C57BL/6 Mouse Tissue, Geomean [2, 8]: 225 ng/g; Concentration in C57BL/6 Mouse Tissue, Mean [2, 8]: 226 ng/g; Cmax ([2]; male, C57BL/6, mouse, in vivo, sc, 60 mg/kg, Cmax): 1810 ng/mL; concentration at 24 h ([2]; male, C57BL/6, mouse, in vivo, sc, 60 mg/kg, Concentration in C57BL/6 Mouse Tissue, Geomean): 192 ng/g; concentration at 24 h ([2]; male, C57BL/6, mouse, in vivo, sc, 60 mg/kg, Concentration in C57BL/6 Mouse Tissue, Mean): 212 ng/g; AUC(0-t) [2, 9]: 49100 ng·h/mL; AUClast/Dose [2, 9]: 273 kg·ng·h/mL/mg; Cmax/Dose [2, 9]: 26.7 kg·ng/mL/mg; C24/Dose [2, 10]: 1.48 kg·ng/mL/mg; Concentration in C57BL/6 Mouse Tissue, Geomean [2, 10]: 602 ng/g; Concentration in C57BL/6 Mouse Tissue, Mean [2, 10]: 635 ng/g; concentration at 24 h ([2]; male, C57BL/6, mouse, in vivo, sc, 180 mg/kg, C24): 266 ng/mL; Cmax ([2]; male, C57BL/6, mouse, in vivo, sc, 180 mg/kg, Cmax): 4800 ng/mL; concentration at 24 h ([2]; male, C57BL/6, mouse, in vivo, sc, 180 mg/kg, Concentration in C57BL/6 Mouse Tissue, Geomean): 514 ng/g; concentration at 24 h ([2]; male, C57BL/6, mouse, in vivo, sc, 180 mg/kg, Concentration in C57BL/6 Mouse Tissue, Mean): 529 ng/g; Tmax [2, 9]: 2 h; Tmax [2, 6]: 0.5 to 2 h; plasma exposure versus dose ([2]; mouse, in vivo): approximately proportional to dose; tissue C24 (trough) exposure versus dose ([2]; mouse, in vivo): approximately proportional to dose

Q: With `CC1=C(C)C(=O)C(CC[C@@](C)(O)CC/C=C(\C)CCC=C(F)F)=C(C)C1=O` [Compound 2] as the compound, how does the tolerability [3] read?
A: well tolerated

Q: What about the “delivery by mode of administration” value ([3]; preliminary) of the same compound?
A: effectively administered

Q: And the “relative 15-LO inhibition (comparison between test articles)” value (15-lipoxygenase (15-LO) [4])?
A: slightly less effective

Q: What about the “relative 15-LO inhibition (comparison between test articles)” value (15-lipoxygenase (15-LO) [5]) of the same compound?
A: slightly less effective
